Data from patent publication US20210221866A1, “PROTEASE-RESISTANT LIPIDATED GLP-1 ANALOGS” (MEDIMMUNE LIMITED, priority 2015, published 2021).
Like-named read-outs stand apart in the source and are kept apart here. Values belong to the compound of their own block, whether it stands above or below them. Numbered stars: 1 amine (or outer) side, 2 acyl side, 3 side chain; on linkers, the order of the positions; unused ones are H or OH. Square brackets hold non-standard residues; d marks the D form. Side chains are listed from the residue outwards. Peptide text beside a SMILES is read from it. * marks the point of attachment. γGlu = O=C(O)[C@H](CCC(=O)[*:2])N[*:1]; αMeF = C[C@](N)(Cc1ccccc1)C(=O)O; αMeK = C[C@](N)(CCCCN)C(=O)O; Lauroyl = CCCCCCCCCCCC(=O)*; αMeS = C[C@](N)(CO)C(=O)O; AEEA = NCCOCCOCC(=O)O; Aib = CC(C)(N)C(=O)O

Legend:
Assay type in all cases: cell-based
[1] = biological target: T1, human glucagon receptor (GCGR) (Homo sapiens, UniProt P47871); assay: cAMP assay, human GCGR cells
T1 construct: expressed in transfected cells; host or cells: HEK293 cells or CHO cells
T1 sequence (P47871 26-477): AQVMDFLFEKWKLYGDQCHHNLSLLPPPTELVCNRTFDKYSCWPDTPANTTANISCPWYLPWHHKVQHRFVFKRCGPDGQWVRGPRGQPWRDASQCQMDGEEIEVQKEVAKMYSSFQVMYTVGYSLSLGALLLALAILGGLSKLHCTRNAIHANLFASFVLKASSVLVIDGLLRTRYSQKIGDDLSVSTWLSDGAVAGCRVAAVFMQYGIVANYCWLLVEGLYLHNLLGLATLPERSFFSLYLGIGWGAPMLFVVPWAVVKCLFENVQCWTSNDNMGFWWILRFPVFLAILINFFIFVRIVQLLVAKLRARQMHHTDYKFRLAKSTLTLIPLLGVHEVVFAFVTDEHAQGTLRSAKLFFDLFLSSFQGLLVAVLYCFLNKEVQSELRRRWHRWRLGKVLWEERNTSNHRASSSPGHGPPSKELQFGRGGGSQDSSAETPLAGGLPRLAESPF
Summary of the method: (§1)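 Peptide-stimulated cAMP measured by two-step HTRF after a 30 min room-temperature incubation with receptor-expressing cells (hGLP-1R, hGIPR at 1×10^5 cells/ml; hGCGR at 2×10^5 cells/ml). Duplicate dilutions; EC50 from 4-parameter logistic fit of % Delta F.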

GLP-1R (INS1e cells) = biological target: T2, GLP-1R (INS1e cells) (Rattus norvegicus, UniProt P32301); assay: INS1e assay, cAMP activity at GLP-1R
T2 construct: endogenous in cells; host or cells: INS1e cells
T2 sequence (P32301 22-463): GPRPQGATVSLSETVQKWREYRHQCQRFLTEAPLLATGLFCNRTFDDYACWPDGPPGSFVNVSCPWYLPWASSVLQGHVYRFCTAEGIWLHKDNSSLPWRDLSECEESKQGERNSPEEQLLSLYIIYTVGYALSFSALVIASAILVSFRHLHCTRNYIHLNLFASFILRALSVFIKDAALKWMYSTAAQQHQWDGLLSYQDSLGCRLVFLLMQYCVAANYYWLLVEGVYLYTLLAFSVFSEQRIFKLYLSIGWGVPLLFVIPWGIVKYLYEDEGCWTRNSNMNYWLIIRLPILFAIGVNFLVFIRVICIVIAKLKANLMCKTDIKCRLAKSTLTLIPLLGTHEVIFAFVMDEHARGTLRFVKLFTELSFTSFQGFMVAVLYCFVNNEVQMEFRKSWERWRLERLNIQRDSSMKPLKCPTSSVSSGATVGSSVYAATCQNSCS

[2] = biological target: T3, human glucose-dependent insulinotropic peptide receptor (GIPR) (Homo sapiens, UniProt P48546); assay: cAMP assay, human GIPR cells
T3 construct: expressed in transfected cells; host or cells: HEK293 cells or CHO cells
T3 sequence (P48546 22-466): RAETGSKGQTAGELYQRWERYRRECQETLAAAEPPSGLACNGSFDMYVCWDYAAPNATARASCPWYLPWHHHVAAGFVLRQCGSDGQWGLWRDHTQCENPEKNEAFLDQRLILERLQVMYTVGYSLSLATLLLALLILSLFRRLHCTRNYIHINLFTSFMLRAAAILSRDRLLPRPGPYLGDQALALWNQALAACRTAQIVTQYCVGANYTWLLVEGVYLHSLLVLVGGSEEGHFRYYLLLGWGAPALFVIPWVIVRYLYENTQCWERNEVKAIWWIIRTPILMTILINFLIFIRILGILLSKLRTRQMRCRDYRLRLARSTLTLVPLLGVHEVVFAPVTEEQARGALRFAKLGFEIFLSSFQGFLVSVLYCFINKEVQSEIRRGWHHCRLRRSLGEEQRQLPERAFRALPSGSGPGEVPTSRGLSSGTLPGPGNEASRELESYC
Summary of the method: as §1

[3] = biological target: T4, human GLP-1 receptor (GLP-1R) (Homo sapiens, UniProt P43220); assay: cAMP assay, human GLP-1R cells; conditions: cAMP activity
T4 construct: expressed in transfected cells; host or cells: HEK293 cells or CHO cells
T4 sequence (P43220 24-463): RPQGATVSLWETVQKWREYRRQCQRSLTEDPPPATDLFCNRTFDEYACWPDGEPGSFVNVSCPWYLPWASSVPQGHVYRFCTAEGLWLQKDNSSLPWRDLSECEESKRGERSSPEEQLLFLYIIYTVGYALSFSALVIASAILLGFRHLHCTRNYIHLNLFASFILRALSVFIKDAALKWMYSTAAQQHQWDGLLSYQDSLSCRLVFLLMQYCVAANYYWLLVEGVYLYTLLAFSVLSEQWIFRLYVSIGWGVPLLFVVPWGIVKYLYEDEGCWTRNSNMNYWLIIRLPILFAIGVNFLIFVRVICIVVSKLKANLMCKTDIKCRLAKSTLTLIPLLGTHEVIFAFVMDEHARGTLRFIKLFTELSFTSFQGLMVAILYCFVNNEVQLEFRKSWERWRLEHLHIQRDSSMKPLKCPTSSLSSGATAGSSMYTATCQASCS
Summary of the method: as §1

[4] = Table 8, substituted and mono-lipidated peptides, mean of n1 and n2, read-out: INS1e assay EC50 Mean pM GLP-1R
[5] = Table 8, substituted and mono-lipidated peptides, replicate n2, read-out: INS1e assay EC50 GLP-1R n2
[6] = mean of n1 and n2, read-out: Mean pM GLP-1R

SMILES: CCCCCCCCCCCC(=O)N[C@@H](CCC(=O)NCCOCCOCC(=O)NCCOCCOCC(=O)NCCCC[C@H](NC(=O)[C@H](C)NC(=O)[C@@H](NC(=O)[C@H](Cc1ccccc1)NC(=O)[C@H](CCCCNC(=O)COCCOCCNC(=O)COCCOCCNC(=O)CC[C@H](NC(=O)CCCCCCCCCCC)C(=O)O)NC(=O)[C@](C)(CCCCN)NC(=O)[C@H](C)NC(=O)[C@H](C)NC(=O)[C@H](CCC(=O)O)NC(=O)CNC(=O)[C@H](CCC(=O)O)NC(=O)[C@H](CCCCNC(=O)COCCOCCNC(=O)COCCOCCNC(=O)CC[C@H](NC(=O)CCCCCCCCCCC)C(=O)O)NC(=O)[C@H](Cc1ccc(O)cc1)NC(=O)[C@H](CO)NC(=O)[C@](C)(CO)NC(=O)[C@@H](NC(=O)[C@H](CC(=O)O)NC(=O)[C@H](CO)NC(=O)[C@@H](NC(=O)[C@](C)(Cc1ccccc1)NC(=O)[C@H](CO)NC(=O)CNC(=O)[C@H](CCC(=O)O)NC(=O)C(C)(C)NC(=O)[C@@H](N)Cc1c[nH]cn1)[C@@H](C)O)C(C)C)[C@@H](C)CC)C(=O)N[C@H](C(=O)N[C@H](C(=O)N[C@@H](CCC(=O)O)C(=O)NCC(=O)NCC(N)=O)C(C)C)C(C)C)C(=O)O [compound 470] (H-H[Aib]EGS[αMeF]TSDV[αMeS]SYK([AEEA-AEEA-γGlu-Lauroyl])EGEAA[αMeK]K([AEEA-AEEA-γGlu-Lauroyl])FIAK([AEEA-AEEA-γGlu-Lauroyl])VVEGG-NH2; N-terminus assumed)
EC50 (GLP-1R (INS1e cells); Table 12, tris-lipidated peptides, mean of n1 and n2, read-out: INS1e assay EC50 Mean pM GLP-1R): 3660 pM

SMILES: CCCCCCCCCCCC(=O)N[C@@H](CCC(=O)NCCOCCOCC(=O)NCCOCCOCC(=O)NCCCC[C@H](NC(=O)[C@H](CC(=O)O)NC(=O)[C@H](CO)NC(=O)[C@@H](NC(=O)[C@](C)(Cc1ccccc1)NC(=O)[C@H](CO)NC(=O)CNC(=O)[C@H](CCC(=O)O)NC(=O)C(C)(C)NC(=O)[C@@H](N)Cc1c[nH]cn1)[C@@H](C)O)C(=O)N[C@@H](CO)C(=O)N[C@@H](CO)C(=O)N[C@@H](Cc1ccc(O)cc1)C(=O)N[C@@H](CC(C)C)C(=O)N[C@@H](CCC(=O)O)C(=O)NCC(=O)N[C@@H](CCC(=O)O)C(=O)N[C@@H](C)C(=O)N[C@@H](C)C(=O)N[C@@](C)(CCCCN)C(=O)N[C@@H](CCC(=O)O)C(=O)N[C@@H](Cc1ccccc1)C(=O)N[C@H](C(=O)N[C@@H](CCCCNC(=O)COCCOCCNC(=O)COCCOCCNC(=O)CC[C@H](NC(=O)CCCCCCCCCCC)C(=O)O)C(=O)N[C@@H](Cc1c[nH]c2ccccc12)C(=O)N[C@H](C(=O)N[C@H](C(=O)N[C@@H](CCC(=O)O)C(=O)NCC(=O)NCC(N)=O)C(C)C)C(C)C)[C@@H](C)CC)C(=O)O [compound 256] (H-H[Aib]EGS[αMeF]TSDK([AEEA-AEEA-γGlu-Lauroyl])SSYLEGEAA[αMeK]EFIK([AEEA-AEEA-γGlu-Lauroyl])WVVEGG-NH2; N-terminus assumed)
EC50 ([1]; Table 9, bis-lipidated peptides, first replicate, read-out: Primary assay EC50 Gluc-R (n1)): ≥ 22.2 nM
EC50 ([1]; Table 9, bis-lipidated peptides, second replicate, read-out: Primary assay EC50 Gluc-R (n2)): ≥ 22.2 nM
EC50 (GLP-1R (INS1e cells); Table 10, bis-lipidated peptides, mean of n1 and n2, read-out: INS1e assay EC50 Mean pM GLP-1R): 1300 pM
EC50 ([2]; Table 9, bis-lipidated peptides, first replicate, read-out: Primary assay EC50 GIP-R (n1)): ≥ 22.2 nM
EC50 ([2]; Table 9, bis-lipidated peptides, second replicate, read-out: Primary assay EC50 GIP-R (n2)): ≥ 22.2 nM

SMILES: CC[C@H](C)[C@H](NC(=O)[C@](C)(Cc1ccccc1)NC(=O)[C@H](CCC(=O)O)NC(=O)[C@H](CCC(=O)O)NC(=O)[C@H](C)NC(=O)[C@H](C)NC(=O)[C@H](CCC(=O)O)NC(=O)CNC(=O)[C@H](CCC(=O)O)NC(=O)[C@H](CC(C)C)NC(=O)[C@](C)(Cc1ccccc1)NC(=O)[C@H](CO)NC(=O)[C@](C)(CO)NC(=O)[C@@H](NC(=O)[C@H](CC(=O)O)NC(=O)[C@H](CO)NC(=O)[C@@H](NC(=O)[C@](C)(Cc1ccccc1)NC(=O)[C@H](CO)NC(=O)CNC(=O)[C@H](CCC(=O)O)NC(=O)C(C)(C)NC(=O)[C@@H](N)Cc1c[nH]cn1)[C@@H](C)O)C(C)C)C(=O)N[C@@H](C)C(=O)N[C@@](C)(Cc1ccccc1)C(=O)N[C@H](C(=O)N[C@H](C(=O)N[C@@H](CCC(=O)O)C(=O)NCC(=O)NCC(N)=O)C(C)C)C(C)C [compound 44] (H-H[Aib]EGS[αMeF]TSDV[αMeS]S[αMeF]LEGEAAEE[αMeF]IA[αMeF]VVEGG-NH2)
EC50 (GLP-1R (INS1e cells); [4]): 455 pM
EC50 [3, 6]: 6.7 pM

Further lines, results first:

EC50 ([1]; cAMP activity, second determination (n2), read-out: Primary assay EC50 Gluc-R): ≥ 28 nM
EC50 (GLP-1R (INS1e cells); [4]): 462 pM
EC50 (GLP-1R (INS1e cells); Table 8, substituted and mono-lipidated peptides, replicate n1, read-out: INS1e assay EC50 GLP-1R n1): 548 pM
EC50 (GLP-1R (INS1e cells); [5]): 376 pM
EC50 ([2]; cAMP activity, first determination (n1), read-out: Primary assay EC50 GIP-R): ≥ 28 nM
EC50 ([2]; cAMP activity, second determination (n2), read-out: Primary assay EC50 GIP-R): ≥ 28 nM
EC50 ([3]; first determination (n1), read-out: Primary assay EC50 GLP-1R n1): 8 pM
EC50 [3, 6]: 6.2 pM
EC50 ([3]; second determination (n2), read-out: Primary assay EC50 GLP-1R n2): 4.5 pM
SMILES: CCCCCCCCCCCC(=O)NCCOCCOCC(=O)NCCCC[C@H](NC(=O)[C@@H](NC(=O)[C@@H](NC(=O)[C@](C)(Cc1ccccc1)NC(=O)[C@H](C)NC(=O)[C@@H](NC(=O)[C@](C)(Cc1ccccc1)NC(=O)[C@H](CCC(=O)O)NC(=O)[C@](C)(CCCCN)NC(=O)[C@H](C)NC(=O)[C@H](C)NC(=O)[C@H](CCC(=O)O)NC(=O)CNC(=O)[C@H](CCC(=O)O)NC(=O)[C@H](CC(C)C)NC(=O)[C@](C)(Cc1ccccc1)NC(=O)[C@H](CO)NC(=O)[C@](C)(CO)NC(=O)[C@@H](NC(=O)[C@H](CC(=O)O)NC(=O)[C@H](CO)NC(=O)[C@@H](NC(=O)[C@](C)(Cc1ccccc1)NC(=O)[C@H](CO)NC(=O)CNC(=O)[C@H](CCC(=O)O)NC(=O)C(C)(C)NC(=O)[C@@H](N)Cc1c[nH]cn1)[C@@H](C)O)C(C)C)[C@@H](C)CC)C(C)C)C(C)C)C(=O)NCC(=O)NCC(N)=O [compound 170]

EC50 (GLP-1R (INS1e cells); [4]): 346 pM
EC50 (GLP-1R (INS1e cells); [5]): 346 pM
SMILES: CCCCCCCCCCCCCCCC(=O)N[C@@H](CCC(=O)NCCCC[C@H](NC(=O)[C@H](CCC(=O)O)NC(=O)[C@](C)(CCCCN)NC(=O)[C@H](C)NC(=O)[C@H](C)NC(=O)[C@H](CCC(=O)O)NC(=O)CNC(=O)[C@H](CCC(=O)O)NC(=O)[C@H](CC(C)C)NC(=O)[C@](C)(Cc1ccccc1)NC(=O)[C@H](CO)NC(=O)[C@](C)(CO)NC(=O)[C@@H](NC(=O)[C@H](CC(=O)O)NC(=O)[C@H](CO)NC(=O)[C@@H](NC(=O)[C@](C)(Cc1ccccc1)NC(=O)[C@H](CO)NC(=O)CNC(=O)[C@H](CCC(=O)O)NC(=O)C(C)(C)NC(=O)[C@@H](N)Cc1c[nH]cn1)[C@@H](C)O)C(C)C)C(=O)N[C@H](C(=O)N[C@@H](C)C(=O)N[C@@](C)(Cc1ccccc1)C(=O)N[C@H](C(=O)N[C@H](C(=O)N[C@@](C)(CCCCN)C(=O)NCC(=O)NCC(N)=O)C(C)C)C(C)C)[C@@H](C)CC)C(=O)O [compound 78]

EC50 (GLP-1R (INS1e cells); [4]): 20 pM
SMILES: CCCCCCCCCCCCCCCCCC(=O)NCCOCCOCC(=O)NCCOCCOCC(=O)NCCOCCOCC(=O)NCCCC[C@H](NC(=O)[C@H](C)NC(=O)[C@H](C)NC(=O)[C@H](CCC(=O)O)NC(=O)CNC(=O)[C@H](CCC(=O)O)NC(=O)[C@H](CC(C)C)NC(=O)[C@](C)(Cc1ccccc1)NC(=O)[C@H](CO)NC(=O)[C@H](CO)NC(=O)[C@@H](NC(=O)[C@H](CC(=O)O)NC(=O)[C@H](CO)NC(=O)[C@@H](NC(=O)[C@](C)(Cc1ccccc1)NC(=O)[C@H](CO)NC(=O)CNC(=O)[C@H](CCC(=O)O)NC(=O)C(C)(C)NC(=O)[C@@H](N)Cc1c[nH]cn1)[C@@H](C)O)C(C)C)C(=O)N[C@@H](CCC(=O)O)C(=O)N[C@@](C)(Cc1ccccc1)C(=O)N[C@H](C(=O)N[C@@H](C)C(=O)N[C@@](C)(Cc1ccccc1)C(=O)N[C@H](C(=O)N[C@H](C(=O)N[C@@](C)(CCCCN)C(=O)NCC(=O)NCC(N)=O)C(C)C)C(C)C)[C@@H](C)CC [compound 52]
